Activity calls are given as the source filed them. No cut-off for these calls is given here.
How the values were obtained:
[1] = target: T1, Free fatty acid receptor 3 (Homo sapiens) (UniProt O14843); assay: Agonist activity at human GPR41 expressed in HEK293T cell membranes co-expressing Go1alpha protein assessed as stimulation of [35S]GTPgammaS binding at 0.1 microM to 0.1 M incubated for 30 mins by scintillation counting method; assay type: functional; details: HEK-293T
T1 sequence (whole entry): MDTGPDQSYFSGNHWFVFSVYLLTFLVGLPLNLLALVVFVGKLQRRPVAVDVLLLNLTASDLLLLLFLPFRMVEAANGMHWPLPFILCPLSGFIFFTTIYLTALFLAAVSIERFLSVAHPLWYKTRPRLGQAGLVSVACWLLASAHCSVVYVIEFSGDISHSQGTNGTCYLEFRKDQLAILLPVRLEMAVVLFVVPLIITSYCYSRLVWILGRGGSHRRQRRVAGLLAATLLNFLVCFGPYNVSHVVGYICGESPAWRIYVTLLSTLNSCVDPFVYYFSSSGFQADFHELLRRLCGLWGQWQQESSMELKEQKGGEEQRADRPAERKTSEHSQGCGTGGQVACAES

[2] = target: T2, Free fatty acid receptor 3 (Rattus norvegicus) (UniProt B2GV46); assay: Agonist activity at GPR41 in rat primary adipocytes assessed as inhibition of isoprenaline-induced lipolysis by measuring glycerol level after 2 hrs; assay type: cell-based
T2 sequence (whole entry): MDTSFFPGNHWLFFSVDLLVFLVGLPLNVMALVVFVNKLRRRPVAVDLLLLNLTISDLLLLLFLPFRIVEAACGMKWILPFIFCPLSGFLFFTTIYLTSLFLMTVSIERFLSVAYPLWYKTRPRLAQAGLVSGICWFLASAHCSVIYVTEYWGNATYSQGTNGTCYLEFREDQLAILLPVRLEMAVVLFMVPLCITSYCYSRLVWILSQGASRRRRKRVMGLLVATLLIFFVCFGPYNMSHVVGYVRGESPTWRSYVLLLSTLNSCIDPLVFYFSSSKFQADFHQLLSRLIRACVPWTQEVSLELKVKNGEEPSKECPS

[3] = target: T2, Free fatty acid receptor 3 (Rattus norvegicus); assay: Agonist activity at rat GPR41 expressed in HEK293T cell membranes co-expressing Go1alpha protein assessed as stimulation of [35S]GTPgammaS binding at 0.1 microM to 0.1 M incubated for 30 mins by scintillation counting method; assay type: functional; details: HEK-293T
[4] = target: T1, Free fatty acid receptor 3 (Homo sapiens); assay: Agonist activity at human GPR41 expressed in HEK293T cell membranes co-expressing Go1lpha protein assessed as stimulation of [35S]GTPgammaS binding at 1 microM to 0.1 M incubated for 30 mins by scintillation counting method; assay type: functional; details: HEK-293T
[5] = target: T2, Free fatty acid receptor 3 (Rattus norvegicus); assay: Agonist activity at rat GPR41 expressed in Saccharomyces cerevisiae MMY11 co-expressing chimeric Gpa1/Galpha12 at 0.5 mM to 50 mM incubated for 48 hrs by induction of FUSl-lacZ and FUS1-HIS3 reporter gene induction based pheromone response pathway coupled assay
[6] = target: T2, Free fatty acid receptor 3 (Rattus norvegicus); assay: Agonist activity at rat GPR41 expressed in Saccharomyces cerevisiae MMY11 co-expressing chimeric Gpa1/Galpha13 at 0.5 mM to 50 mM incubated for 48 hrs by induction of FUSl-lacZ and FUS1-HIS3 reporter gene induction based pheromone response pathway coupled assay
[7] = target: T2, Free fatty acid receptor 3 (Rattus norvegicus); assay: Agonist activity at rat GPR41 expressed in Saccharomyces cerevisiae MMY11 co-expressing chimeric Gpa1/Ga0 at 0.5 mM to 50 mM incubated for 48 hrs by induction of FUSl-lacZ and FUS1-HIS3 reporter gene induction based pheromone response pathway coupled assay

| Compound | Activity [1] | Activity [2] | Activity [3] | further results |
| --- | --- | --- | --- | --- |
| CC(=O)[O-].N.O=CO.[Na+] | Active | Dose-dependent effect | Active | – |
| CC(=O)[O-].[Na+] | – | Dose-dependent effect | – | – |
| CCCC(=O)[O-].CCCCC(=O)[O-].[K+].[Na+] | Active | – | – | – |
| CCCCC(=O)[O-].[K+] | – | Active | – | – |
| CC(O)CC(=O)O (racemic) | – | – | – | Activity [4]: Active |
| CCC(=O)[O-].[Na+] [SODIUM PROPIONATE] | Active | Dose-dependent effect | Active | Activity [5]: Active; Activity [6]: Active; Activity [7]: Active |
